Some test systems named below: ACHN renal; HCT-116 colon; HOP-62 NSCLC; HOP-92 NSCLC; HT29 colon; IGROV1 ovarian; KM12 colon; MDA-MB-231 breast; MDA-N; NCI-H226 lung; SK-MEL-5 melanoma; SNB-75 CNS; TK-10 renal; UACC-62 melanoma; HL-60(TB) leukemia.
Assay in all cases: inhibition of tumour cell growth, NCI panel, 48 h

SMILES strings stand for the structures.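 Cells were grown in 96-well plates and exposed to each compound for 48 hours at five concentrations; endpoints were interpolated linearly between bracketing concentrations, or set to the highest concentration if not reached. TGI is the concentration that stops growth completely.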

On to `COC(=O)c1cn(CCCCO)nn1`, for which the TGI with ACHN renal, in the assay on HCT-116 colon, in the assay with HOP-62 NSCLC, with HOP-92 NSCLC, with HT29 colon and in the assay on IGROV1 ovarian was over 100 µM in each case. The TGI with KM12 colon, in the assay on MDA-MB-231 breast, in the assay on MDA-N, with NCI-H226 lung, with SK-MEL-5 melanoma and in the assay with SNB-75 CNS was over 100 µM throughout. Also, the TGI with TK-10 renal and in the assay with UACC-62 melanoma was over 100 µM each time.

In the case of `CN1CC(S(=O)(=O)c2ccccc2)CC(S(=O)(=O)c2ccccc2)C1c1ccccc1` (stereo not drawn), the TGI with ACHN renal is 26.9 µM; with HCT-116 colon it was 22.9 µM; in the assay on HL-60(TB) leukemia, 32.2 µM; in the assay on HOP-62 NSCLC, 54.6 µM; with HOP-92 NSCLC, 37.7 µM; in the assay on HT29 colon, 29.6 µM. In addition, the TGI is over 100 µM with IGROV1 ovarian; 38.7 µM in the assay with KM12 colon; 31.8 µM in the assay with MDA-MB-231 breast; 28.8 µM in the assay with MDA-N; 65.5 µM with NCI-H226 lung; 28.6 µM with SK-MEL-5 melanoma. The TGI in the assay with TK-10 renal was 28 µM; in the assay with UACC-62 melanoma, 29 µM.

In the case of `CCN(CC)C(=O)N[C@@H](Cc1ccccc1)C(=O)NC`, the TGI with ACHN renal, in the assay on HCT-116 colon, in the assay on HL-60(TB) leukemia, in the assay with HOP-62 NSCLC, in the assay on HT29 colon and in the assay with IGROV1 ovarian was over 100 µM throughout. Further, the TGI with KM12 colon, in the assay on MDA-MB-231 breast, with MDA-N, in the assay on NCI-H226 lung, in the assay with SK-MEL-5 melanoma and in the assay with SNB-75 CNS was over 100 µM each time. In the assay with UACC-62 melanoma, this compound showed a TGI of over 100 µM.

Turning to `N#Cc1c(-c2ccccc2)c(C#N)c(=S)n(C2OCC(O)C(O)C2O)c1N` (stereo not drawn), the TGI in the assay with ACHN renal, in the assay with HL-60(TB) leukemia, with HOP-62 NSCLC, in the assay on HT29 colon, in the assay on IGROV1 ovarian and with KM12 colon was over 100 µM each time. Further, the TGI in the assay on MDA-MB-231 breast, in the assay on MDA-N, in the assay with NCI-H226 lung, in the assay on SK-MEL-5 melanoma, in the assay with SNB-75 CNS and with TK-10 renal was over 100 µM each time. For the same compound, the TGI in the assay with UACC-62 melanoma was over 100 µM.

For the compound `COc1ccc2[nH]cc(CN3CCC(CO)(c4ccccc4)CC3)c2c1`, the TGI with ACHN renal was 47.8 µM; with HCT-116 colon it was 35.8 µM; in the assay on HL-60(TB) leukemia it was 48.5 µM; with HOP-62 NSCLC, 58.8 µM; in the assay with HT29 colon, over 100 µM; in the assay on IGROV1 ovarian it was over 100 µM. Moreover, the TGI in the assay with KM12 colon was 35.4 µM; in the assay on MDA-MB-231 breast, 80.9 µM; with MDA-N, 38.3 µM; in the assay on NCI-H226 lung, over 100 µM; in the assay with SK-MEL-5 melanoma it was 27.1 µM; in the assay with SNB-75 CNS it was 87.6 µM. Further, the TGI is over 100 µM with TK-10 renal and 92.2 µM in the assay with UACC-62 melanoma.

For `O=C(Nc1ccc(N2C(=O)CSC2c2cccs2)cc1)c1ccc(N2C(=O)CSC2c2cccs2)cc1` (stereo not drawn), the TGI in the assay on ACHN renal, in the assay with HCT-116 colon, in the assay on HOP-62 NSCLC, in the assay with HOP-92 NSCLC, with HT29 colon and with IGROV1 ovarian was over 100 µM in each case. Besides, the TGI in the assay with KM12 colon, in the assay on MDA-MB-231 breast, in the assay on MDA-N, with SK-MEL-5 melanoma, in the assay with SNB-75 CNS and with TK-10 renal was over 100 µM each time. For the same compound, the TGI in the assay on UACC-62 melanoma was over 100 µM.

In the case of `Nc1ccc(-c2nc3ccccc3s2)cc1F`, the TGI in the assay with ACHN renal was 74.4 µM; in the assay on HCT-116 colon it was 32.9 µM; in the assay on HOP-62 NSCLC, over 100 µM; in the assay on HOP-92 NSCLC, over 100 µM; in the assay with HT29 colon, over 100 µM; with IGROV1 ovarian, over 100 µM. The TGI was over 100 µM with KM12 colon; 79 µM in the assay on MDA-MB-231 breast; over 100 µM in the assay with MDA-N; 40.9 µM with SK-MEL-5 melanoma; 82 µM in the assay on SNB-75 CNS; 53.4 µM in the assay with UACC-62 melanoma.

For the compound `O=C1c2ccccc2-n2c1nc1cc(Cl)ccc1c2=O`, the TGI with ACHN renal, with HCT-116 colon, in the assay with HOP-62 NSCLC, in the assay with HOP-92 NSCLC, in the assay with HT29 colon and with IGROV1 ovarian was over 100 µM in each case. Further, the TGI was over 100 µM in the assay with KM12 colon; over 100 µM in the assay on MDA-MB-231 breast; 29.1 µM in the assay on MDA-N; over 100 µM in the assay on NCI-H226 lung; 76.4 µM with SK-MEL-5 melanoma; over 100 µM with SNB-75 CNS. Besides, the TGI is over 100 µM with TK-10 renal and 32.1 µM with UACC-62 melanoma.

For the compound `COC1CC(n2ccc(=O)[nH]c2=O)OC1CO` (stereo not drawn), the TGI in the assay on ACHN renal, in the assay on HCT-116 colon, in the assay with HOP-62 NSCLC, in the assay on HOP-92 NSCLC, with HT29 colon and in the assay with IGROV1 ovarian was over 100 µM throughout. The TGI in the assay on KM12 colon, with MDA-MB-231 breast, in the assay with MDA-N, with NCI-H226 lung, in the assay with SK-MEL-5 melanoma and in the assay on UACC-62 melanoma was over 100 µM throughout.

As for `CC(=O)OC(C#N)CC(C)(C)/[N+]([O-])=[N+](\[O-])C(C)(C)CC(C#N)OC(C)=O` (stereo not drawn), the TGI is 24.5 µM with ACHN renal; 20.9 µM in the assay with HCT-116 colon; 36.2 µM in the assay on HOP-62 NSCLC; 27 µM in the assay on HOP-92 NSCLC; 65.8 µM in the assay with HT29 colon; 24 µM in the assay with IGROV1 ovarian. The TGI came out at 28.9 µM in the assay on KM12 colon; 36.1 µM in the assay on MDA-MB-231 breast; 30.3 µM in the assay with MDA-N; 55.3 µM with NCI-H226 lung; 33.9 µM with SK-MEL-5 melanoma; 63.8 µM in the assay on SNB-75 CNS. The TGI with TK-10 renal was 31.2 µM; with UACC-62 melanoma, 32.2 µM.

The record behind these values is PubChem BioAssay (NCI).
